# PMC12077488 (Science signaling, 2025)
# How the values were obtained:
# [1] = target: Gαi (UniProt P08753); settings: cited from earlier work
# [2] = tested on: endogenous adenosine receptors (A1 purinergic receptors); experiment: Gαi bONE-GO kinetic BRET in primary mouse cortical astroglial cells; format: cell-based; settings: lentiviral Gαi bONE-GO, N=3
# [3] = tested on: GABABR; settings: HEK293T cells expressing GABABR, GINIP-Nluc and YFP-CAAX
# [4] = tested on: DOR; settings: cited from earlier work
# Chain of GINIP (Q9UPV7 2-400): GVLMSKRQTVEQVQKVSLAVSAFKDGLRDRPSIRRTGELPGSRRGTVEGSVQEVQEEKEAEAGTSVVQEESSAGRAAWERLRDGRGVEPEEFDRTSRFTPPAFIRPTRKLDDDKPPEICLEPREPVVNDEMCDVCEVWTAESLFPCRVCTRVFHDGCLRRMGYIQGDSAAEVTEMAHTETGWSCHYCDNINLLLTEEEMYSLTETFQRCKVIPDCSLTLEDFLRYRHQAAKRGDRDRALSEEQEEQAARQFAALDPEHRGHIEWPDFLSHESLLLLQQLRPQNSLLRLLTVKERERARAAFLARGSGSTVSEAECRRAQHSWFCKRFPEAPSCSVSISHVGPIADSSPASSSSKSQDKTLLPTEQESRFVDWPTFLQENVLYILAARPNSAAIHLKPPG
# Chain of Gαi (P08753 2-354): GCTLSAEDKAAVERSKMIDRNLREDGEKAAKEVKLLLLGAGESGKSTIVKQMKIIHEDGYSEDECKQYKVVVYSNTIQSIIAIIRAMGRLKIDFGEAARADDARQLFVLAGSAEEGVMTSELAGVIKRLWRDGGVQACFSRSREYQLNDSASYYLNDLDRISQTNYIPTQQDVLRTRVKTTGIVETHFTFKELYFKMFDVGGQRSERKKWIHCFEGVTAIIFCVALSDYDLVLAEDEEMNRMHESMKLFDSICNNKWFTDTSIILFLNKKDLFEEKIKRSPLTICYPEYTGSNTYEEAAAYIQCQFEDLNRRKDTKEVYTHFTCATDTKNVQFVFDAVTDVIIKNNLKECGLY
compound,measurement,setting,value
GINIP (from UniProt Q9UPV7),Kd,[1],65 nM
Nc1ncnc2c1ncn2[C@@H]1O[C@H](CO)[C@@H](O)[C@H]1O [adenosine],BRET response (endogenous Gαi activation) to adenosine,[2],robust and concentration-dependent responses
CGP54626,reversal of the GABA-induced BRET response by antagonist,[3],rapidly reverted
Endomorphin-2,agonist efficacy annotation for DOR in the IUPHAR database,[4],lack of annotation
Endomorphin-1,DOR activity according to the source reference of the IUPHAR annotation,[4],inactive
same,agonist efficacy annotation for DOR in the IUPHAR database,[4],full agonist
